# Columns and labels:
# [1] = target: T1, Recombinant full-length human IDO1 (Homo sapiens, UniProt P14902); experiment: IDO1 enzymatic assay (NFK quantified by LCMS); format: biochemical; details: 2 nM enzyme, 5 μM L-tryptophan, pH6.5, 30 minutes pre-incubation at RT; mean values when measured multiple times; read-out: hIDO activity (IC50 in nM)
# T1 construct: Recombinant full-length human IDO1 with a N-terminal hexahistidine tag; hexahistidine (His6) (N); made in house; host or cells: E. coli
# Outline: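 IC50 comes from four-parameter logistic fits of duplicate data, with NFK quantified by LCMS and normalized to L-Trp-(indole-d5). Compound (0.5 nM–10 μM) was preincubated 30 min at RT with 2 nM E. coli-expressed IDO1 before a 30 min reaction with 5 μM tryptophan in pH 6.5 buffer containing ascorbate and methylene blue.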
# [2] = target: T2, Recombinant human TDO comprising amino acids 19-407 (Homo sapiens, UniProt P48775); experiment: TDO2 enzymatic assay (NFK quantified by LCMS); format: biochemical; details: 15 nM enzyme, 200 μM L-tryptophan, pH7, 30 minutes pre-incubation at RT; mean values when measured multiple times; read-out: hTDO activity (IC50 in nM)
# T2 construct: Recombinant human TDO comprising amino acids 19-407 with a N-terminal hexahistidine tag; hexahistidine (His6) (N); made in house; host or cells: E. coli
# Outline: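 NFK formed over 30 min at RT from 200 μM L-tryptophan was measured by LCMS, normalized to d5-tryptophan, after compound (0.5 nM–10 μM, duplicates, 0.6% DMSO) was preincubated 30 min with 15 nM recombinant His-tagged TDO 19-407 in phosphate buffer pH 7. IC50 from four-parameter logistic fit; repeats averaged.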
# T1 sequence (P14902 whole entry): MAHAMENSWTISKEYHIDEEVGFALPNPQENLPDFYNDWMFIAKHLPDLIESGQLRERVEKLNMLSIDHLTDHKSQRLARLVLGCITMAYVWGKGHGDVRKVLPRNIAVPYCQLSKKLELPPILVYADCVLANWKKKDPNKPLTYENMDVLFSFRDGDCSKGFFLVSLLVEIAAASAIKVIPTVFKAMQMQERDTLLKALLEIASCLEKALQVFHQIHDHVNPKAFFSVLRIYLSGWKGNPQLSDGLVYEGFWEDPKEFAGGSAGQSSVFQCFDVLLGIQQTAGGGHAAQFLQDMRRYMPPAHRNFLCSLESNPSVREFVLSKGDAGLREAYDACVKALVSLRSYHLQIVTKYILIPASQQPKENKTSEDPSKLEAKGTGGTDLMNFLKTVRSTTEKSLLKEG
# T2 sequence (P48775 19-406 limits assumed): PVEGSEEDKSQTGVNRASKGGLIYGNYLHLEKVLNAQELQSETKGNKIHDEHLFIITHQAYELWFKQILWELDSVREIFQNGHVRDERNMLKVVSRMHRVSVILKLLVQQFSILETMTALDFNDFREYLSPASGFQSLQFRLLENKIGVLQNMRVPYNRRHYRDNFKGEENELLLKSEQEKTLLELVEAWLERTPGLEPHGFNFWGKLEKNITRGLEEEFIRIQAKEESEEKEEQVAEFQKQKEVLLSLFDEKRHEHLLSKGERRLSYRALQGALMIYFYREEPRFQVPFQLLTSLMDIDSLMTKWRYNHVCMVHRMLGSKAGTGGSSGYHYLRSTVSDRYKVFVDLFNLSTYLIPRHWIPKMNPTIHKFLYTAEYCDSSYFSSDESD
Compound,IC50 [1] [nM],IC50 [2] [nM]
"CCc1sc2cncn2c1C(O)c1cn(-c2ccc3[nH]ccc3c2)nn1 (racemic) [Example 50, rac-(2-Ethyl-imidazo[5,1-b]thiazol-3-yl)-[1-(1H-indol-5-yl)-1H-[1,2,3]triazol-4-yl]-methanol]",9.63,1970
"OC(c1nnc(-c2ccccc2)s1)c1c(C2CC2)sc2cncn12 (racemic) [Example 175, rac-(2-Cyclopropyl-imidazo[5,1-b]thiazol-3-yl)-(5-phenyl-[1,3,4]thiadiazol-2-yl)-methanol]",122,> 10200
"CCNC(=O)c1ccc(-n2cc(C(O)c3c(CC)sc4cncn34)nn2)cc1 (racemic) [Example 128, rac-N-Ethyl-4-{4-[(2-ethyl-imidazo[5,1-b]thiazol-3-yl)-hydroxy-methyl]-[1,2,3]triazol-1-yl}-benzamide]",16.5,9780
"CCc1sc2cncn2c1C(O)c1cn(-c2ccc(OC)cc2)nn1 (racemic) [Example 285, rac-(2-Ethyl-imidazo[5,1-b]thiazol-3-yl)-[1-(4-methoxy-phenyl)-1H-[1,2,3]triazol-4-yl]-methanol]",7.91,6470
"Oc1ccc(Cn2cc(C(O)c3c(C4CC4)sc4cncn34)nn2)cc1 (racemic) [Example 304, rac-4-{4-[(2-Cyclopropyl-imidazo[5,1-b]thiazol-3-yl)-hydroxy-methyl]-[1,2,3]triazol-1-ylmethyl}-phenol]",52.2,> 10200
"OCCOCCOCCOc1ccc(-n2cc(C(O)c3c(C4CC4)sc4cncn34)nn2)cc1 (racemic) [Example 201, rac-2-{2-[2-(4-{4-[(2-Cyclopropyl-imidazo[5,1-b]thiazol-3-yl)-hydroxy-methyl]-[1,2,3]triazol-1-yl}-phenoxy)-ethoxy]-ethoxy}-ethanol]",27.8,> 10200
"OC(c1cn(-c2ccc(N3CCOCC3)cc2)nn1)c1c(C2CC2)sc2cncn12 (racemic) [Example 38, rac-(2-Cyclopropyl-imidazo[5,1-b]thiazol-3-yl)-[1-(4-morpholin-4-yl-phenyl)-1H-[1,2,3]triazol-4-yl]-methanol]",72.7,> 10200
"OC(c1cn(-c2ccc(OCc3ccccc3)c(F)c2)nn1)c1c([C@@H]2C[C@H]2F)sc2cncn12 (relative stereo) [Example 322, [1-(4-Benzyloxy-3-fluoro-phenyl)-1H-[1,2,3]triazol-4-yl]-[2-(trans-2-fluoro-cyclopropyl)-imidazo[5,1-b]thiazol-3-yl]-methanol]",16.2,> 10200
"COc1ccc(-n2cc(C(O)c3c([C@@H]4C[C@@H]4F)sc4cncn34)nn2)cc1 (relative stereo) [Example 93, [2-(cis-2-Fluoro-cyclopropyl)-imidazo[5,1-b]thiazol-3-yl]-[1-(4-methoxy-phenyl)-1H-[1,2,3]triazol-4-yl]-methanol]",25,> 10200
"CCc1sc2cncn2c1C(O)c1cn(-c2ccc(C(=O)NCCCO)cc2)nn1 (racemic) [Example 115, rac-4-{4-[(2-Ethyl-imidazo[5,1-b]thiazol-3-yl)-hydroxy-methyl]-[1,2,3]triazol-1-yl}-N-(3-hydroxy-propyl)-benzamide]",12.7,> 10200
"CCc1sc2cncn2c1C(O)c1cn(-c2ccc3c(c2)C(C)NS3(=O)=O)nn1 (centres unmarked) [Example 227, (2-Ethyl-imidazo[5,1-b]thiazol-3-yl)-[1-(3-methyl-1,1-dioxo-2,3-dihydro-1H-1I6-benzo[d]isothiazol-5-yl)-1H-[1,2,3]triazol-4-yl]-methanol]",77.8,> 10200
"CC(C)(O)CCOc1ccc(-n2cc(C(O)c3c([C@@H]4C[C@H]4F)sc4cncn34)nn2)cc1Cl (relative stereo) [Example 308, 4-[2-Chloro-4-(4-{[2-(trans-2-fluoro-cyclopropyl)-imidazo[5,1-b]thiazol-3-yl]-hydroxy-methyl}-[1,2,3]triazol-1-yl)-phenoxy]-2-methyl-butan-2-ol]",12.7,> 10200
"Oc1cc(F)c(-n2cc(C(O)c3c(C4CC4)sc4cncn34)nn2)cc1F (racemic) [Example 331, rac-4-{4-[(2-Cyclopropyl-imidazo[5,1-b]thiazol-3-yl)-hydroxy-methyl]-[1,2,3]triazol-1-yl}-2,5-difluoro-phenol]",4.55,7180
"CCc1sc2cncn2c1C(O)c1cn(-c2ccc3[nH]c(=O)oc3c2)nn1 (racemic) [Example 181, rac-6-{4-[(2-Ethyl-imidazo[5,1-b]thiazol-3-yl)-hydroxy-methyl]-[1,2,3]triazol-1-yl}-3H-benzooxazol-2-one]",7.86,4330
"O=S(=O)(c1ccc(-n2cc(C(O)c3c(C4CC4)sc4cncn34)nn2)cc1)N1CCCC1 (racemic) [Example 237, rac-(2-Cyclopropyl-imidazo[5,1-b]thiazol-3-yl)-{1-[4-(pyrrolidine-1-sulfonyl)-phenyl]-1H-[1,2,3]triazol-4-yl}-methanol]",155,> 10200
"COc1cc(F)c(-n2cc(C(O)c3c(C4CC4)sc4cncn34)nn2)cc1Cl (racemic) [Example 300, rac-[1-(5-Chloro-2-fluoro-4-methoxy-phenyl)-1H-[1,2,3]triazol-4-yl]-(2-cyclopropyl-imidazo[5,1-b]thiazol-3-yl)-methanol]",6.66,> 10200

# Continued, values first:
IC50 [1] [nM],IC50 [2] [nM],Compound
11.7,> 10200,"O[C@@H](c1cn(-c2ccccc2)nn1)c1c(C2CC2)sc2cncn12 [Example 2a, (R)-(2-Cyclopropyl-imidazo[5,1-b]thiazol-3-yl)-(1-phenyl-1H-[1,2,3]triazol-4-yl)-methanol]"
28.8,> 10200,"Cc1cccc(-n2cc(C(O)c3c(C4CC4)sc4cncn34)nn2)c1 (racemic) [Example 28, rac-(2-Cyclopropyl-imidazo[5,1-b]thiazol-3-yl)-(1-m-tolyl-1H-[1,2,3]triazol-4-yl)-methanol]"
15.8,> 10200,"Cc1cc(-n2cc(C(O)c3c(C4CC4)sc4cncn34)nn2)ccc1O (racemic) [Example 211, rac-4-{4-[(2-Cyclopropyl-imidazo[5,1-b]thiazol-3-yl)-hydroxy-methyl]-[1,2,3]triazol-1-yl}-2-methyl-phenol]"
29.8,3800,"CC(C)C(=O)Nc1ccc(-n2cc(C(O)c3c(C4CC4)sc4cncn34)cn2)cc1 (racemic) [Example 246, rac-N-(4-{4-[(2-Cyclopropyl-imidazo[5,1-b]thiazol-3-yl)-hydroxy-methyl]-pyrazol-1-yl}-phenyl)-isobutyramide]"
10.8,> 10200,"OCCOc1ccc(-n2cc(C(O)c3c(C4CC4)sc4cncn34)nn2)cc1 (racemic) [Example 136, rac-2-(4-{4-[(2-Cyclopropyl-imidazo[5,1-b]thiazol-3-yl)-hydroxy-methyl]-[1,2,3]triazol-1-yl}-phenoxy)-ethanol]"
68.3,> 10200,"OCC1(c2ccc(-n3cc(C(O)c4c(C5CC5)sc5cncn45)nn3)cc2)CC1 (racemic) [Example 40, rac-(2-Cyclopropyl-imidazo[5,1-b]thiazol-3-yl)-{1-[4-(1-hydroxymethyl-cyclopropyl)-phenyl]-1H-[1,2,3]triazol-4-yl}-methanol]"
41.8,3350,"OC(c1cnn(-c2ccccc2)c1)c1c(C2CC2)sc2cncn12 (racemic) [Example 100, rac-(2-Cyclopropyl-imidazo[5,1-b]thiazol-3-yl)-(1-phenyl-1H-pyrazol-4-yl)-methanol]"
8.08,> 10200,"Oc1ccc(-n2cc(C(O)c3c(C4CC4)sc4cncn34)nn2)cc1 (racemic) [Example 68, rac-4-{4-[(2-Cyclopropyl-imidazo[5,1-b]thiazol-3-yl)-hydroxy-methyl]-[1,2,3]triazol-1-yl}-phenol]"
19.6,> 10200,"COCCCNC(=O)c1ccc(-n2cc(C(O)c3c(C4CC4)sc4cncn34)nn2)cc1 (racemic) [Example 106, rac-4-{4-[(2-Cyclopropyl-imidazo[5,1-b]thiazol-3-yl)-hydroxy-methyl]-[1,2,3]triazol-1-yl}-N-(3-methoxy-propyl)-benzamide]"
8.8,> 10200,"O=C(NCc1ccco1)c1ccc(-n2cc(C(O)c3c(C4CC4)sc4cncn34)nn2)cc1 (racemic) [Example 190, rac-4-{4-[(2-Cyclopropyl-imidazo[5,1-b]thiazol-3-yl)-hydroxy-methyl]-[1,2,3]triazol-1-yl}-N-furan-2-ylmethyl-benzamide]"
27.6,> 10200,"Oc1cccc(-n2cc(C(O)c3c(C4CC4)sc4cncn34)nn2)c1 (racemic) [Example 215, rac-3-{4-[(2-Cyclopropyl-imidazo[5,1-b]thiazol-3-yl)-hydroxy-methyl]-[1,2,3]triazol-1-yl}-phenol]"
11.2,> 10200,"CC1(COc2ccc(-n3cc(C(O)c4c(C5CC5)sc5cncn45)nn3)cc2)COC1 (racemic) [Example 144, rac-(2-Cyclopropyl-imidazo[5,1-b]thiazol-3-yl)-{1-[4-(3-methyl-oxetan-3-ylmethoxy)-phenyl]-1H-[1,2,3]triazol-4-yl}-methanol]"
